{"source": "patent US20130266557A1", "about": "“METHODS FOR TREATMENT OF A SARCOMA USING AN EPIMETABOLIC SHIFTER (COENZYME Q10)” (priority 2009, published 2013)", "origin": "cited, not measured here", "tested_on": "cancer", "conditions": "Mazzio 2006; cited from earlier work"}
{"compound": "COC1=C(OC)C(=O)C(C)=CC1=O", "note": "[DMBQ, 2,3-dimethoxy-5-methyl-1,4-benzoquinone, reference compound]", "values": [{"measurement": "Potency as an anti-cancer agent relative to CoQ10", "value": "> 1000", "unit": "times"}]}
